Source: PubChem BioAssay (NCI)
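Step 1: Grow cells in 96-well plates. Step 2: Expose to compound for 48 hours at 5 concentrations. Step 3: Interpolate endpoints linearly; if unreached, use highest concentration. TGI denotes the concentration required for complete inhibition of growth.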

Legend:
Test in all cases: inhibition of tumour cell growth, NCI panel, 48 h
MDA-N = system: MDA-N
OVCAR-3 ovarian = system: OVCAR-3 ovarian
EKVX NSCLC = system: EKVX NSCLC
SF-539 CNS = system: SF-539 CNS
SK-MEL-28 melanoma = system: SK-MEL-28 melanoma
BT-549 breast = system: BT-549 breast
HOP-62 NSCLC = system: HOP-62 NSCLC
U251 CNS = system: U251 CNS
HS 578T breast = system: HS 578T breast
OVCAR-4 ovarian = system: OVCAR-4 ovarian
TK-10 renal = system: TK-10 renal
MALME-3M melanoma = system: MALME-3M melanoma
UO-31 renal = system: UO-31 renal
CAKI-1 renal = system: CAKI-1 renal
UACC-257 melanoma = system: UACC-257 melanoma
NCI/ADR-RES ovarian = system: NCI/ADR-RES ovarian
CCRF-CEM leukemia = system: CCRF-CEM leukemia
SK-MEL-5 melanoma = system: SK-MEL-5 melanoma
SK-OV-3 ovarian = system: SK-OV-3 ovarian
UACC-62 melanoma = system: UACC-62 melanoma
MDA-MB-231 breast = system: MDA-MB-231 breast
SR leukemia = system: SR leukemia
OVCAR-8 ovarian = system: OVCAR-8 ovarian
RXF 393 renal = system: RXF 393 renal
DU-145 prostate = system: DU-145 prostate
HT29 colon = system: HT29 colon
HCC-2998 colon = system: HCC-2998 colon
SK-MEL-2 melanoma = system: SK-MEL-2 melanoma
RPMI-8226 leukemia = system: RPMI-8226 leukemia
NCI-H460 lung = system: NCI-H460 lung
NCI-H226 lung = system: NCI-H226 lung
NCI-H522 lung = system: NCI-H522 lung
PC-3 prostate = system: PC-3 prostate
SW-620 colon = system: SW-620 colon
A549 NSCLC = system: A549 NSCLC
IGROV1 ovarian = system: IGROV1 ovarian
ACHN renal = system: ACHN renal
SNB-19 CNS = system: SNB-19 CNS
MCF7 breast = system: MCF7 breast
T-47D breast = system: T-47D breast
HCT-15 colon = system: HCT-15 colon
K-562 leukemia = system: K-562 leukemia
MDA-MB-435 = system: MDA-MB-435
OVCAR-5 ovarian = system: OVCAR-5 ovarian
SN12C renal = system: SN12C renal
COLO 205 colon = system: COLO 205 colon
KM12 colon = system: KM12 colon
SF-295 CNS = system: SF-295 CNS
HOP-92 NSCLC = system: HOP-92 NSCLC
MOLT-4 leukemia = system: MOLT-4 leukemia
M14 melanoma = system: M14 melanoma
SNB-75 CNS = system: SNB-75 CNS
HCT-116 colon = system: HCT-116 colon
SF-268 CNS = system: SF-268 CNS
NCI-H23 lung = system: NCI-H23 lung
786-0 renal = system: 786-0 renal
A498 renal = system: A498 renal
LOX IMVI melanoma = system: LOX IMVI melanoma
HL-60(TB) leukemia = system: HL-60(TB) leukemia

Q: How did the TGI (MDA-N) turn out when `CC(=O)OC/C=C/[C@H](O[Si](C)(C)C(C)(C)C)[C@@H](O)/C=C/COC(C)=O` was run?
A: > 100 µM

Q: And the TGI (OVCAR-3 ovarian)?
A: > 100 µM

Q: What about the TGI (EKVX NSCLC) of the same compound?
A: > 100 µM

Q: And the TGI (SF-539 CNS)?
A: > 100 µM

Q: What about the TGI (SK-MEL-28 melanoma) of the same compound?
A: > 100 µM

Q: What about the TGI (BT-549 breast) of the same compound?
A: > 100 µM

Q: And the TGI (HOP-62 NSCLC)?
A: > 100 µM

Q: And the TGI (U251 CNS)?
A: > 100 µM

Q: What about the TGI (HS 578T breast) of the same compound?
A: > 100 µM

Q: And the TGI (OVCAR-4 ovarian)?
A: > 100 µM

Q: What about the TGI (TK-10 renal) of the same compound?
A: > 100 µM

Q: And the TGI (MALME-3M melanoma)?
A: > 100 µM

Q: And the TGI (UO-31 renal)?
A: > 100 µM

Q: What about the TGI (CAKI-1 renal) of the same compound?
A: > 100 µM

Q: What about the TGI (UACC-257 melanoma) of the same compound?
A: > 100 µM

Q: What about the TGI (NCI/ADR-RES ovarian) of the same compound?
A: > 100 µM

Q: What about the TGI (CCRF-CEM leukemia) of the same compound?
A: 52 µM

Q: What about the TGI (SK-MEL-5 melanoma) of the same compound?
A: > 100 µM

Q: And the TGI (SK-OV-3 ovarian)?
A: > 100 µM

Q: What about the TGI (UACC-62 melanoma) of the same compound?
A: > 100 µM

Q: And the TGI (MDA-MB-231 breast)?
A: > 100 µM

Q: And the TGI (SR leukemia)?
A: 86.2 µM

Q: What about the TGI (OVCAR-8 ovarian) of the same compound?
A: > 100 µM

Q: What about the TGI (RXF 393 renal) of the same compound?
A: > 100 µM

Q: What about the TGI (DU-145 prostate) of the same compound?
A: > 100 µM

Q: What about the TGI (HT29 colon) of the same compound?
A: > 100 µM

Q: And the TGI (HCC-2998 colon)?
A: > 100 µM

Q: And the TGI (SK-MEL-2 melanoma)?
A: > 100 µM

Q: What about the TGI (RPMI-8226 leukemia) of the same compound?
A: 43.7 µM

Q: What about the TGI (NCI-H460 lung) of the same compound?
A: > 100 µM

Q: And the TGI (NCI-H226 lung)?
A: > 100 µM

Q: And the TGI (NCI-H522 lung)?
A: > 100 µM

Q: What about the TGI (PC-3 prostate) of the same compound?
A: > 100 µM

Q: And the TGI (SW-620 colon)?
A: > 100 µM

Q: And the TGI (A549 NSCLC)?
A: > 100 µM

Q: And the TGI (IGROV1 ovarian)?
A: > 100 µM

Q: What about the TGI (ACHN renal) of the same compound?
A: > 100 µM

Q: What about the TGI (SNB-19 CNS) of the same compound?
A: > 100 µM

Q: What about the TGI (MCF7 breast) of the same compound?
A: > 100 µM

Q: And the TGI (T-47D breast)?
A: > 100 µM

Q: What about the TGI (HCT-15 colon) of the same compound?
A: > 100 µM

Q: What about the TGI (K-562 leukemia) of the same compound?
A: 52.8 µM

Q: What about the TGI (MDA-MB-435) of the same compound?
A: > 100 µM

Q: What about the TGI (OVCAR-5 ovarian) of the same compound?
A: > 100 µM

Q: What about the TGI (SN12C renal) of the same compound?
A: > 100 µM

Q: What about the TGI (COLO 205 colon) of the same compound?
A: > 100 µM

Q: And the TGI (KM12 colon)?
A: > 100 µM

Q: What about the TGI (SF-295 CNS) of the same compound?
A: > 100 µM

Q: And the TGI (HOP-92 NSCLC)?
A: > 100 µM

Q: What about the TGI (MOLT-4 leukemia) of the same compound?
A: 54.8 µM

Q: And the TGI (M14 melanoma)?
A: > 100 µM

Q: What about the TGI (SNB-75 CNS) of the same compound?
A: > 100 µM

Q: And the TGI (HCT-116 colon)?
A: > 100 µM

Q: And the TGI (SF-268 CNS)?
A: > 100 µM

Q: What about the TGI (NCI-H23 lung) of the same compound?
A: > 100 µM

Q: What about the TGI (786-0 renal) of the same compound?
A: > 100 µM

Q: And the TGI (A498 renal)?
A: > 100 µM

Q: And the TGI (LOX IMVI melanoma)?
A: > 100 µM

Q: `CC(C)(C)[Si](C)(C)OCC1OC(n2cnc3c(N)ncnc32)CC1O` (stereo not drawn) was tested. Which TGI (MDA-N) did it give?
A: > 100 µM

Q: What about the TGI (OVCAR-3 ovarian) of the same compound?
A: > 100 µM

Q: What about the TGI (SK-MEL-28 melanoma) of the same compound?
A: > 100 µM

Q: What about the TGI (BT-549 breast) of the same compound?
A: > 100 µM

Q: And the TGI (HOP-62 NSCLC)?
A: > 100 µM

Q: And the TGI (U251 CNS)?
A: > 100 µM

Q: What about the TGI (HS 578T breast) of the same compound?
A: > 100 µM

Q: What about the TGI (OVCAR-4 ovarian) of the same compound?
A: > 100 µM

Q: What about the TGI (TK-10 renal) of the same compound?
A: > 100 µM

Q: What about the TGI (MALME-3M melanoma) of the same compound?
A: > 100 µM

Q: What about the TGI (UO-31 renal) of the same compound?
A: > 100 µM

Q: What about the TGI (CAKI-1 renal) of the same compound?
A: > 100 µM

Q: What about the TGI (UACC-257 melanoma) of the same compound?
A: > 100 µM

Q: What about the TGI (NCI/ADR-RES ovarian) of the same compound?
A: > 100 µM

Q: What about the TGI (CCRF-CEM leukemia) of the same compound?
A: > 100 µM

Q: And the TGI (SK-MEL-5 melanoma)?
A: > 100 µM

Q: What about the TGI (SK-OV-3 ovarian) of the same compound?
A: > 100 µM

Q: What about the TGI (UACC-62 melanoma) of the same compound?
A: > 100 µM

Q: And the TGI (MDA-MB-231 breast)?
A: > 100 µM

Q: And the TGI (SR leukemia)?
A: > 100 µM

Q: What about the TGI (OVCAR-8 ovarian) of the same compound?
A: > 100 µM

Q: What about the TGI (RXF 393 renal) of the same compound?
A: > 100 µM

Q: And the TGI (DU-145 prostate)?
A: > 100 µM

Q: And the TGI (HT29 colon)?
A: > 100 µM

Q: What about the TGI (SK-MEL-2 melanoma) of the same compound?
A: > 100 µM

Q: What about the TGI (RPMI-8226 leukemia) of the same compound?
A: > 100 µM

Q: And the TGI (NCI-H460 lung)?
A: > 100 µM

Q: And the TGI (NCI-H226 lung)?
A: > 100 µM

Q: And the TGI (PC-3 prostate)?
A: > 100 µM

Q: And the TGI (SW-620 colon)?
A: > 100 µM

Q: And the TGI (IGROV1 ovarian)?
A: > 100 µM

Q: And the TGI (SNB-19 CNS)?
A: > 100 µM

Q: And the TGI (MCF7 breast)?
A: > 100 µM

Q: What about the TGI (T-47D breast) of the same compound?
A: > 100 µM

Q: What about the TGI (HCT-15 colon) of the same compound?
A: > 100 µM

Q: What about the TGI (K-562 leukemia) of the same compound?
A: > 100 µM

Q: And the TGI (MDA-MB-435)?
A: > 100 µM

Q: What about the TGI (OVCAR-5 ovarian) of the same compound?
A: > 100 µM

Q: What about the TGI (SN12C renal) of the same compound?
A: > 100 µM

Q: And the TGI (COLO 205 colon)?
A: > 100 µM

Q: And the TGI (HL-60(TB) leukemia)?
A: > 100 µM

Q: What about the TGI (KM12 colon) of the same compound?
A: > 100 µM

Q: What about the TGI (SF-295 CNS) of the same compound?
A: > 100 µM

Q: What about the TGI (MOLT-4 leukemia) of the same compound?
A: > 100 µM

Q: And the TGI (M14 melanoma)?
A: > 100 µM

Q: What about the TGI (SNB-75 CNS) of the same compound?
A: > 100 µM

Q: What about the TGI (HCT-116 colon) of the same compound?
A: > 100 µM

Q: And the TGI (NCI-H23 lung)?
A: > 100 µM

Q: What about the TGI (A498 renal) of the same compound?
A: > 100 µM

Q: What about the TGI (LOX IMVI melanoma) of the same compound?
A: > 100 µM
